Experimental data: article PMC13489962, “Small-molecule modulation of β-arrestins” (Nature, 2026)

Tested on: βARR1 MCL site mutants coupling to pβ2V2R
Experiment: [3H]-Fen binding with βARR1 MCL site mutants
Assay type: biochemical, Rattus norvegicus
Conditions: mutations P131A, D135A, K138A, C140A and E283A
Method: The expression and purification of β-arrestins have been described previously[44],[62]–[64]. In brief, E. coli BL21 (DE3) pLysS cells (New England Biolabs: C2527I) carrying pGEX4T1-Rattus norvegicus βARR1 or βARR2 construct, with their C terminus truncated (at amino acid 393 or 394, respectively), were cultured in Terrific Broth (Teknova) medium at 37 °C. After OD600 reached 0.6–0.8, the cells were induced with 0.1 mM isopropyl-β-D-thiogalactopyranoside (IPTG) at 18 °C overnight. […] Eluted fractions were analysed by SDS–PAGE, pooled, concentrated using 30 kDa MWCO Amicon Ultra-15 Centrifugal Filter devices, flash-frozen in liquid nitrogen, and stored in aliquots at −80 °C. […] Protein concentrations for each protein were determined by ultraviolet absorption at 280 nm and extinction coefficients estimated using the ExPASy ProtParam tool[67].
To assess the effects of β-arrestin modulators on β-arrestin- or Gαs–βγ-promoted high-affinity agonist binding, [^3H]-Fen binding assays were performed using membranes from Sf9 cells expressing phosphorylated β2V2R (pβ2V2R) or β2AR[28]. […] Bound [^3H]-Fen was extracted overnight in scintillation fluid and quantified by scintillation counting. Specific binding was calculated by subtracting nonspecific from total binding.

In the case of C=C1C(=O)[C@]23[C@H](O)[C@H]1CC[C@H]2[C@@]12CO[C@]3(O)[C@@H](O)[C@@H]1C(C)(C)CC[C@@H]2O [Cmpd-5, (1S,4aR,5S,6S,6aR,9S,11aS,11bS,14R)-1,5,6,14-tetrahydroxy−4,4-dimethyl-8-methylenedecahydro-1H-6,11b-(epoxymethano)-6a,9-methanocyclohepta[a]naphthalen-7(8H)-one], the “effect of mutation on Cmpd-5 inhibition of βARR1 coupling” value is reported as “negligible effects”.
